Test results published in patent US20230263822A1, “MODULATION OF FACTOR 11 EXPRESSION” (Ionis Pharmaceuticals, Inc., priority 2008, published 2023).
Strand notation (5' to 3'): a small letter for the sugar, then the base; units joined by * are phosphorothioate-linked, units joined directly phosphodiester-linked; [ ] holds rarer units or linkages, { } end groups; capitals alone tell only the bases. e = 2'-O-(2-methoxyethyl) (MOE); [5mC] = 5-methylcytosine; d = 2'-deoxy (DNA)

The substances below were run on human Factor 11 mRNA (assay: Antisense inhibition of human Factor 11 in HepG2 cells, lipofectin, 75 nM (Example 1)). Conditions: 75 nM antisense oligonucleotide, ~24 h, relative to untreated control cells, gapmers targeted to SEQ ID NO: 1.
Assay type: cell-based
Procedure, shortened: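 HepG2 cells transfected via lipofectin with 75 nM antisense oligonucleotide (5-10-5 MOE gapmers, 20-mers, phosphorothioate, 5-methylcytidines), treated ~24 h. Factor 11 mRNA quantified by real-time PCR, normalised to RIBOGREEN total RNA; percent inhibition versus untreated cells.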
“412204 (antisense eT*eT*e[5mC]*eA*eT*dG*dT*d[5mC]*dT*dA*dG*dG*dT*d[5mC]*d[5mC]*eA*e[5mC]*eA*eT*eA) [compound 412204]” was tested, and the “% inhibition” value was 74%. For “412262 (antisense eA*eA*eT*eG*eA*dG*dA*dT*dA*dA*dA*dT*dA*dT*dT*eT*eG*e[5mC]*eA*e[5mC]) [compound 412262]”, the “% inhibition” value was 34%. In the case of “412245 (antisense eG*eT*e[5mC]*eA*e[5mC]*dT*dA*dA*dG*dG*dG*dT*dA*dT*d[5mC]*eT*eT*eG*eG*e[5mC]) [compound 412245]”, the “% inhibition” value is reported as 75%. In the case of “412251 (antisense e[5mC]*eT*eA*eG*e[5mC]*dA*dT*dT*dT*dT*d[5mC]*dT*dT*dA*d[5mC]*eA*eA*eA*e[5mC]*eA) [compound 412251]”, the “% inhibition” value is reported as 58%. With “413460 (antisense eT*eA*e[5mC]*e[5mC]*eT*dT*dG*dA*dG*dA*dG*dA*dA*dT*dT*eG*e[5mC]*eT*eT*eG) [compound 413460]” the “% inhibition” value was 40%. With “413492 (antisense eA*eG*eA*e[5mC]*eA*d[5mC]*dG*d[5mC]*dA*dA*dA*dA*dT*d[5mC]*dT*eT*eA*eG*eG*eT) [compound 413492]” the “% inhibition” value was 68%. For “412187 (antisense eT*eT*e[5mC]*eA*eA*dA*d[5mC]*dA*dA*dG*dT*dG*dA*d[5mC]*dA*eT*eA*e[5mC]*eA*e[5mC]) [compound 412187]”, the “% inhibition” value was 21%. “412250 (antisense eT*eG*eG*e[5mC]*eA*d[5mC]*dA*dG*dT*dG*dA*dA*d[5mC]*dT*d[5mC]*eA*eA*e[5mC]*eA*e[5mC]) [compound 412250]” was tested, and the “% inhibition” value was 63%. With “412229 (antisense eG*eT*eA*e[5mC]*eA*d[5mC]*dT*d[5mC]*dA*dT*dT*dA*dT*d[5mC]*d[5mC]*eA*eT*eT*eT*eT) [compound 412229]” the “% inhibition” value was 64%. “413466 (antisense eA*e[5mC]*eA*eT*eA*dA*dA*dT*dG*dT*d[5mC]*dT*dT*dT*dG*eT*eT*eG*e[5mC]*eA) [compound 413466]” was tested, and the “% inhibition” value was 79%. For “413480 (antisense eA*eA*eG*eA*eA*dA*dT*d[5mC]*dA*dG*dT*dG*dT*d[5mC]*dA*eT*eG*eG*eT*eA) [compound 413480]”, the “% inhibition” value was 71%. For “413485 (antisense eT*eG*eG*eT*eG*dG*dT*dA*d[5mC]*dA*d[5mC]*dT*d[5mC]*dA*dT*eT*eA*eT*e[5mC]*e[5mC]) [compound 413485]”, the “% inhibition” value was 68%. “412259 (antisense eT*eT*eT*eT*e[5mC]*dA*dG*dG*dA*dA*dA*dG*dT*dG*dT*eA*eT*e[5mC]*eT*eT) [compound 412259]” was tested, and the “% inhibition” value was 37%. In the case of “412201 (antisense e[5mC]*eA*eT*eT*eG*d[5mC]*dT*dT*dG*dA*dA*dA*dG*dA*dA*eT*eA*e[5mC]*e[5mC]*e[5mC]) [compound 412201]”, the “% inhibition” value is reported as 66%. “412263 (antisense eT*eG*eA*eA*eA*dG*d[5mC]*dT*dA*dT*dG*dT*dG*dG*dT*eG*eA*e[5mC]*eA*eA) [compound 412263]” was tested, and the “% inhibition” value was 33%. “412241 (antisense eT*eA*eT*eT*eA*dT*dT*dT*d[5mC]*dT*dT*dG*dA*dA*d[5mC]*e[5mC]*e[5mC]*e[5mC]*eA*eA) [compound 412241]” was tested, and the “% inhibition” value was 41%. “412228 (antisense eA*eT*eG*eT*eG*dT*dA*dT*d[5mC]*d[5mC]*dA*dG*dA*dG*dA*eT*eG*e[5mC]*e[5mC]*eT) [compound 412228]” was tested, and the “% inhibition” value was 71%. With “412216 (antisense eA*eA*eA*eG*eA*dT*dT*dT*d[5mC]*dT*dT*dT*dG*dA*dG*eA*eT*eT*e[5mC]*eT) [compound 412216]” the “% inhibition” value was 43%. For “412195 (antisense eA*eA*eA*eT*e[5mC]*dA*dT*d[5mC]*d[5mC]*dT*dG*dA*dA*dA*dA*eG*eA*e[5mC]*e[5mC]*eT) [compound 412195]”, the “% inhibition” value was 22%. For “412239 (antisense eT*eT*e[5mC]*eA*eG*dA*dT*dT*dG*dA*dT*dT*dT*dA*dA*eA*eA*eT*eG*e[5mC]) [compound 412239]”, the “% inhibition” value was 43%. For “412246 (antisense eA*eG*eA*eT*e[5mC]*dA*dT*d[5mC]*dT*dT*dA*dT*dG*dG*dG*eT*eT*eA*eT*eT) [compound 412246]”, the “% inhibition” value was 68%. In the case of “413487 (antisense eA*eA*e[5mC]*eG*eA*dT*d[5mC]*d[5mC]*dT*dG*dG*dG*d[5mC]*dT*dT*eG*eA*eT*eT*eT) [compound 413487]”, the “% inhibition” value is reported as 57%. With “412210 (antisense eT*eG*e[5mC]*eA*e[5mC]*dA*dG*dG*dA*dT*dT*dT*d[5mC]*dA*dG*eT*eG*eA*eA*eA) [compound 412210]” the “% inhibition” value was 73%. For “413471 (antisense eT*e[5mC]*eA*eG*eT*dA*dG*dA*d[5mC]*dA*dA*dA*dT*dG*dT*eT*eA*e[5mC]*eG*eA) [compound 413471]”, the “% inhibition” value was 67%. For “412233 (antisense eT*eG*eT*e[5mC]*eT*d[5mC]*dT*dG*dA*dG*dT*dG*dG*dG*dT*eG*eA*eG*eG*eT) [compound 412233]”, the “% inhibition” value was 64%. With “412215 (antisense eA*eT*eT*e[5mC]*eT*dT*dT*dG*dG*dG*d[5mC]*d[5mC]*dA*dT*dT*e[5mC]*e[5mC]*eT*eG*eG) [compound 412215]” the “% inhibition” value was 81%. In the case of “412214 (antisense eT*e[5mC]*e[5mC]*eT*eG*dG*dG*dA*dA*dA*dA*dG*dA*dA*dG*eG*eT*eA*eA*eA) [compound 412214]”, the “% inhibition” value is reported as 58%. In the case of “413494 (antisense eG*eT*eG*eG*eT*dT*dT*d[5mC]*d[5mC]*dA*dG*dT*dT*dT*d[5mC]*eA*eA*e[5mC]*eA*eA) [compound 413494]”, the “% inhibition” value is reported as 70%. For “413484 (antisense e[5mC]*e[5mC]*eT*eT*eA*dA*dT*dG*dT*dG*dT*dA*dT*d[5mC]*d[5mC]*eA*eG*eA*eG*eA) [compound 413484]”, the “% inhibition” value was 74%. For “413483 (antisense eA*eA*e[5mC]*eT*eG*dG*d[5mC]*dA*dG*d[5mC]*dG*dG*dA*d[5mC]*dG*eG*e[5mC]*eA*eT*eT) [compound 413483]”, the “% inhibition” value was 78%.

Same assay, conditions: 75 nM antisense oligonucleotide, ~24 h, relative to untreated control cells, gapmers targeted to SEQ ID NO: 2
With “413500 (antisense eG*eT*eG*eA*eG*dA*d[5mC]*dA*dA*dA*dT*d[5mC]*dA*dA*dG*eA*e[5mC]*eT*eT*e[5mC]) [compound 413500]” the “% inhibition” value was 15%. For “413503 (antisense eA*eT*eA*e[5mC]*e[5mC]*dT*dA*dG*dT*dA*d[5mC]*dA*dA*dT*dG*eT*eA*eA*eA*eT) [compound 413503]”, the “% inhibition” value was 29%. “413506 (antisense eA*eT*eG*eG*eA*dA*dT*dT*dG*dT*dG*d[5mC]*dT*dT*dA*eT*eG*eA*eG*eT) [compound 413506]” was tested, and the “% inhibition” value was 57%. In the case of “413504 (antisense eG*eG*e[5mC]*eT*eT*dG*dT*dG*dT*dG*dT*dG*dG*dT*d[5mC]*eA*eA*eT*eA*eT) [compound 413504]”, the “% inhibition” value is reported as 54%. For “413520 (antisense eG*e[5mC]*eT*e[5mC]*eT*dG*dA*dG*dA*dG*dT*dT*d[5mC]*d[5mC]*dA*eA*eT*eT*e[5mC]*eA) [compound 413520]”, the “% inhibition” value was 52%. “413501 (antisense eT*eT*eA*eG*eT*dT*dT*dA*d[5mC]*dT*dG*dA*d[5mC]*dA*d[5mC]*eT*eA*eA*eG*eA) [compound 413501]” was tested, and the “% inhibition” value was 23%. “413536 (antisense eT*eT*eA*eA*eT*dA*dT*dA*d[5mC]*dT*dG*d[5mC]*dA*dG*dA*eG*eA*eA*e[5mC]*e[5mC]) [compound 413536]” was tested, and the “% inhibition” value was 37%. For “413515 (antisense eG*eG*eT*eA*eT*d[5mC]*d[5mC]*dT*dG*dA*dG*dT*dG*dA*dG*eA*eT*e[5mC]*eT*eA) [compound 413515]”, the “% inhibition” value was 36%. With “413519 (antisense eA*eT*eG*eG*eA*dG*dA*d[5mC]*dA*dT*dT*d[5mC]*dA*dT*dT*eT*e[5mC]*e[5mC]*eA*e[5mC]) [compound 413519]” the “% inhibition” value was 59%. For “413535 (antisense eG*eT*e[5mC]*eA*e[5mC]*dA*dT*dT*dT*dA*dA*dA*dA*dT*dT*eT*e[5mC]*e[5mC]*eA*eA) [compound 413535]”, the “% inhibition” value was 41%. “413531 (antisense eG*eT*eA*e[5mC]*eA*d[5mC]*dT*d[5mC]*dT*dG*d[5mC]*dA*dA*d[5mC]*dA*eG*eA*eA*eG*e[5mC]) [compound 413531]” was tested, and the “% inhibition” value was 47%. “413513 (antisense eT*eT*e[5mC]*eT*eG*dA*dA*dT*dA*dT*dA*d[5mC]*dA*dA*dA*eT*eT*eA*eA*eT) [compound 413513]” was tested, and the “% inhibition” value was 27%. With “413509 (antisense eT*e[5mC]*eA*eG*eG*dA*d[5mC]*dA*d[5mC]*dA*dA*dG*dT*dA*dA*eA*e[5mC]*e[5mC]*eT*eG) [compound 413509]” the “% inhibition” value was 66%. “413505 (antisense eT*eG*eG*eG*eA*dA*dA*dG*d[5mC]*dT*dT*dT*d[5mC]*dA*dA*eT*eA*eT*eT*e[5mC]) [compound 413505]” was tested, and the “% inhibition” value was 57%.

What follows are substances tested on human Factor 11 mRNA (assay: Antisense inhibition of human Factor 11 in HepG2 cells by microwalk gapmers, lipofectin, 75 nM (Example 3)). Conditions: HepG2, lipofectin, ~24 h, gapmers targeted to nucleobases 656 to 704 of SEQ ID NO: 1.
Assay type: cell-based
Procedure, shortened: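 HepG2 cells (10,000/well) were transfected via lipofectin with 75 nM 20-mer MOE gapmers (phosphorothioate, 5-methyl-C) for about 24 h. Factor 11 mRNA was measured by qRT-PCR, normalized to RIBOGREEN total RNA, and given as percent inhibition versus untreated cells.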
With “412204 (antisense eT*eT*e[5mC]*eA*eT*dG*dT*d[5mC]*dT*dA*dG*dG*dT*d[5mC]*d[5mC]*eA*e[5mC]*eA*eT*eA) [compound 412204]” the “% inhibition” value was 76%.

Same assay, conditions: HepG2 cells, lipofectin, gapmers targeted to nucleobases 1062 to 1091 of SEQ ID NO: 1
With “412215 (antisense eA*eT*eT*e[5mC]*eT*dT*dT*dG*dG*dG*d[5mC]*d[5mC]*dA*dT*dT*e[5mC]*e[5mC]*eT*eG*eG) [compound 412215]” the “% inhibition” value was 82%.
